{
  "source": "paper PMC10126473",
  "about": "(Frontiers in Pharmacology, 2023)",
  "key": {"[1]": {"experiment": "Mouse PK and tissue distribution study (non-compartmental analysis)", "conditions": "mice; for Tmax / half-life: male, C57BL/6, mouse, in vivo, po; for Tmax: Tmax Obs; for half-life: t1/2 Obs", "protocol": "The in-life study (Animal Study Protocol Number: NIH ORS-51) was conducted at the NIH Animal Facility by the Division of Veterinary Resources (DVR, Bethesda, MD). In this study, 25–35 g male C57BL/6 mice (Charles River Laboratories, Frederick, MD) were used. For the IV groups, 66 mice (33 mice per dosing group, 3 mice per timepoint) were used for a single bolus IV dose of 3 or 10 mg/kg of PDN via tail vein injection. […] The IV and PO doses were selected to obtain a complete concentration profile in plasma and tissues, based on a preliminary study. Animals were not fasted in this study. […] All dosing solutions were freshly prepared on the day of dosing. At designated time points, blood samples were collected, and mice were euthanized with CO2 in accordance with NIH ARAC Guidelines after blood collection. The death was ensured by cervical dislocation or transthoracic puncture. Lung, liver, adipose, brain, heart, small intestine, kidney, skeletal muscle, and spleen samples were obtained from mice. […] Tissue samples were rinsed with cold saline, dried on filtrate paper, weighed, and snap frozen by placing into dry ice after collection. All samples were stored at −80°C until the analysis. All blood samples were collected in K2EDTA tubes and centrifuged at 3000 g for 10 min at 4°C to obtain plasma. Plasma samples were transferred to tubes preloaded with NaF (final concentration at 5 mM in 200 µL plasma) and stored at −80°C until analysis.\nFor fat tissue, an additional 3-fold volume of acetonitrile was added to the water homogenate and was vortexed in a shaker for another 30 min.\nA 10 μ aliquot of samples, blank controls (blank plasma or tissue homogenates), quality controls (QC), and standards were added into 200 μ acetonitrile solution with 100 ng/mL tolbutamide (internal standard, IS). All samples were then thoroughly shaken for 5 min to precipitate proteins. The samples were centrifuged at 3000 rpm and 4°C for 30 min. The supernatant was injected for UPLC-MS/MS analysis.\nThe mobile phase consisted of 0.1% formic acid in water (A) and 0.1% formic acid in acetonitrile (B), the flow rate was 600 μL/min. […] All analyses were carried out using a Waters Acquity I-Class UPLC interfaced with a Waters Xevo TQ-S mass spectrometer. The mass spectrometer multiple reaction monitoring (MRM) experiment was operated with an ESI source at negative mode with spray voltage of 1 kV, and temperature of 600°C. Both Q1 and Q3 were set at unit resolution. […] The correlation coefficients of the calibration curves were all greater than 0.99. […] The linear range, precision and accuracy of QCs in various tissues and plasma are shown in Supplementary Table S1 and Supplementary Table S2.\nThe area under the concentration vs. time curve (AUC) was calculated using the linear trapezoidal method. The terminal rate constant (λ) was obtained from the slope of at least three data points of the apparent terminal phase of the log linear concentration vs. time curve. AUC0–∞ was estimated as the sum of the AUC0–t (where t is the time of the last measurable concentration) and Ct/λ. […] Bioavailability (F) was calculated using ratios of dose-normalized AUC of PO and IV administration."}, "[2]": {"experiment": "PBPK model (GastroPlus): simulation and model parameters incl. permeability surface product and scaled metabolic kinetics, human", "conditions": "for Liver Vmax: in vivo (scaled)"}, "[3]": {"experiment": "Metabolic stability in plasma", "conditions": "for Plasma k: human, in vitro", "quoted_text": "The incubation was carried out at 37°C for 15, 30, and 60 min. The reaction in plasma or liver microsomes was quenched by adding 200 μL of cold acetonitrile (containing 100 ng/mL tolbutamide as internal standard). After a 20 min centrifugation at 3000 rpm, 4°C, the supernatant was transferred to an analysis plate and analyzed by UPLC-MS/MS as described in Section 2.4.2.\nThe substrate disappearance half-life (t1/2) was estimated by regression analysis of the semi-logarithmic (ln Conc vs. time) plots."}, "[4]": {"conditions": "10 mg/kg, PO 10 mg/kg PDN, kidney"}, "[5]": {"conditions": "10 mg/kg, PO 10 mg/kg PDN, liver"}, "[6]": {"conditions": "10 mg/kg, PO 10 mg/kg PDN, lung"}, "[7]": {"conditions": "10 mg/kg, PO 10 mg/kg PDN, muscle"}, "[8]": {"conditions": "10 mg/kg, PO 10 mg/kg PDN, plasma"}, "[9]": {"conditions": "10 mg/kg, PO 10 mg/kg PDN, spleen"}},
  "data": [
    {"molecule": "O=C(Nc1ccc([N+](=O)[O-])cc1Cl)c1cc(Cl)ccc1OC(=O)N1CCNCC1", "note": "[PDN]", "values": [
      {"measurement": "Tmax", "setting": "[1]; [4]", "value": 1.5, "unit": "h"},
      {"measurement": "Tmax", "setting": "[1]; [5]", "value": 1.5, "unit": "h"},
      {"measurement": "Tmax", "setting": "[1]; [6]", "value": 1.5, "unit": "h"},
      {"measurement": "Tmax", "setting": "[1]; [7]", "value": 1.5, "unit": "h"},
      {"measurement": "Tmax", "setting": "[1]; [8]", "value": 1.5, "unit": "h"},
      {"measurement": "Tmax", "setting": "[1]; [9]", "value": 1.5, "unit": "h"},
      {"measurement": "half-life", "setting": "[1]; 10 mg/kg, PO 10 mg/kg PDN, adipose", "value": 3.48, "unit": "h"},
      {"measurement": "half-life", "setting": "[1]; 10 mg/kg, PO 10 mg/kg PDN, brain", "value": 2.45, "unit": "h"},
      {"measurement": "half-life", "setting": "[1]; 10 mg/kg, PO 10 mg/kg PDN, heart", "value": 2.16, "unit": "h"},
      {"measurement": "half-life", "setting": "[1]; 10 mg/kg, PO 10 mg/kg PDN, intestine", "value": 1.79, "unit": "h"},
      {"measurement": "half-life", "setting": "[1]; [4]", "value": 2.99, "unit": "h"},
      {"measurement": "half-life", "setting": "[1]; [5]", "value": 2.36, "unit": "h"},
      {"measurement": "half-life", "setting": "[1]; [6]", "value": 3.29, "unit": "h"},
      {"measurement": "half-life", "setting": "[1]; [7]", "value": 2.83, "unit": "h"},
      {"measurement": "half-life", "setting": "[1]; [8]", "value": "~3.2", "unit": "h"},
      {"measurement": "half-life", "setting": "[1]; [9]", "value": 3.16, "unit": "h"},
      {"measurement": "AUC0-∞ Obs", "setting": "[1]; IV 3 mg/kg PDN, adipose", "value": "990 (169) h*ng/g"},
      {"measurement": "AUC0-∞ Obs", "setting": "[1]; IV 3 mg/kg PDN, brain", "value": "1024 (124) h*ng/g"},
      {"measurement": "AUC0-∞ Obs", "setting": "[1]; IV 3 mg/kg PDN, heart", "value": "5676 (481) h*ng/g"},
      {"measurement": "AUC0-∞ Obs", "setting": "[1]; IV 3 mg/kg PDN, intestine", "value": "3222 (749) h*ng/g"},
      {"measurement": "AUC0-∞ Obs", "setting": "[1]; IV 3 mg/kg PDN, kidney", "value": "9833 (1080) h*ng/g"},
      {"measurement": "AUC0-∞ Obs", "setting": "[1]; IV 3 mg/kg PDN, lung", "value": "53071 (4993) h*ng/g"},
      {"measurement": "AUC0-∞ Obs", "setting": "[1]; IV 3 mg/kg PDN, muscle", "value": "1828 (221) h*ng/g"},
      {"measurement": "AUC0-∞ Obs", "setting": "[1]; IV 3 mg/kg PDN, spleen", "value": "16808 (1242) h*ng/g"},
      {"measurement": "AUC0-∞ Obs", "setting": "[1]; IV 10 mg/kg PDN, brain", "value": "5622 (1331) h*ng/g"},
      {"measurement": "AUC0-∞ Obs", "setting": "[1]; IV 10 mg/kg PDN, heart", "value": "31647 (6073) h*ng/g"},
      {"measurement": "AUC0-∞ Obs", "setting": "[1]; IV 10 mg/kg PDN, intestine", "value": "14586 (1295) h*ng/g"},
      {"measurement": "AUC0-∞ Obs", "setting": "[1]; IV 10 mg/kg PDN, kidney", "value": "62371 (6713) h*ng/g"},
      {"measurement": "AUC0-∞ Obs", "setting": "[1]; IV 10 mg/kg PDN, liver", "value": "883 (323) h*ng/g"},
      {"measurement": "AUC0-∞ Obs", "setting": "[1]; IV 10 mg/kg PDN, lung", "value": "173216 (21722) h*ng/g"},
      {"measurement": "AUC0-∞ Obs", "setting": "[1]; IV 10 mg/kg PDN, muscle", "value": "10301 (2999) h*ng/g"},
      {"measurement": "AUC0-∞ Obs", "setting": "[1]; IV 10 mg/kg PDN, spleen", "value": "63505 (10129) h*ng/g"},
      {"measurement": "AUC0-∞ Obs", "setting": "[1]; PO 10 mg/kg PDN, adipose", "value": "2788 (299) h*ng/g"},
      {"measurement": "AUC0-∞ Obs", "setting": "[1]; PO 10 mg/kg PDN, brain", "value": "2741 (488) h*ng/g"},
      {"measurement": "AUC0-∞ Obs", "setting": "[1]; PO 10 mg/kg PDN, heart", "value": "10680 (1787) h*ng/g"},
      {"measurement": "AUC0-∞ Obs", "setting": "[1]; PO 10 mg/kg PDN, intestine", "value": "37739 (6003) h*ng/g"},
      {"measurement": "AUC0-∞ Obs", "setting": "[1]; PO 10 mg/kg PDN, kidney", "value": "40372 (8592) h*ng/g"},
      {"measurement": "AUC0-∞ Obs", "setting": "[1]; PO 10 mg/kg PDN, liver", "value": "591 (176) h*ng/g"},
      {"measurement": "AUC0-∞ Obs", "setting": "[1]; PO 10 mg/kg PDN, lung", "value": "123875 (23366) h*ng/g"},
      {"measurement": "AUC0-∞ Obs", "setting": "[1]; PO 10 mg/kg PDN, muscle", "value": "4005 (814) h*ng/g"},
      {"measurement": "AUC0-∞ Obs", "setting": "[1]; PO 10 mg/kg PDN, spleen", "value": "45737 (9727) h*ng/g"},
      {"measurement": "F (bioavailability) Obs", "setting": "[1]; PO 10 mg/kg PDN, 10 mg/kg", "value": 85.8, "unit": "%"},
      {"measurement": "Liver Vmax", "setting": "[2]; conversion to Nc", "value": 0.0004, "unit": "mg/s/mg microsomes"},
      {"measurement": "Gut Vmax", "setting": "[2]; conversion to Nc, in vivo, predicted from in vitro liver parameters", "value": 0.00001, "unit": "mg/s/mg microsomes"},
      {"measurement": "Liver Vmax", "setting": "[2]; conversion to Others", "value": 0.0164, "unit": "mg/s/mg microsomes"},
      {"measurement": "Plasma k", "setting": "[3]; conversion to Nc", "value": 0.00026, "unit": "s⁻¹"},
      {"measurement": "Plasma k", "setting": "[3]; conversion to Others", "value": 0.0022, "unit": "s⁻¹"},
      {"measurement": "kin vitro,app, PDN-total (total depletion of PDN)", "setting": "[3]; human plasma, 37°C", "value": "0.0025 ± 0.0013", "unit": "min⁻¹"}
    ]}
  ]
}
